Assays:
NCI-H2122 cells = test: Cell viability, NCI-H2122 cells with SLC7A11 knock-out and/or SLC25A45 over-expression; format: cell-based, human; conditions: for effect of SLC7A11 knock-out and SLC25A45 over-expression on cell viability under treatment: SLC7A11 knock-out or SLC25A45 over-expression vs wild type
Protocol: (§1) Cell viability was assayed using a modified manufacturer's protocol for CellTiter-Glo® (Promega #G7573). Cells were seeded at a density of 2000 cells per well in a 96 well black, clear bottom plate (Corning #89091-012) in 100 uL total media per well. The following day different concentrations of compounds at various doses were printed in triplicate in a random well format using the Tecan D300e Digital Dispenser. After 72 hours, 60 μL of a 1:3 solution of CellTiterGlo reagent in 1×PBS (Corning #01018002) was added per well and allowed to incubate at RT for 10 mins. Luminescence was measured with an integration time of 0.1 s using Envision Microplates Reader (PERKIN ELMER #2105-0010). Biological replicates were averaged and normalized to vehicle control. Dose curves were generated using Graphpad Prism.

[1] = system: SLC7A11 knock-out LU99 cells; test: CellTiter-Glo cell viability, SLC7A11 knock-out LU99 cells vs LacZ control; format: cell-based, human
Protocol: as §1

LU99 cells = test: CellTiter-Glo cell viability, LU99 wild type cells; format: cell-based; conditions: Homo sapiens, Lu-99, read-out: IC50 (percent viability)
Protocol: as §1

[2] = system: LU99 cells with ectopic expression of FAM3B; test: CellTiter-Glo cell viability, LU99 cells with ectopic expression of FAM3B; format: cell-based, human
Protocol: as §1

500 cancer cell lines = test: PRISM multiplex cancer cell line viability screen; format: cell-based, human; conditions: 5,000 small molecules against 500 cancer cell lines
Protocol: Parental cell lines were obtained from the Cancer Cell Line Encyclopedia (CCLE) project. PRISM cell line barcoding, pooling, and screening was performed as previously described with several improvements to the original method. First, the lentiviral vector was modified to encode the unique barcode identifier at the end of the puromycin resistance gene. This enables barcodes to be detected using a variant of the mRNA capture and Luminex detection method developed for the L1000 gene expression assay. Second, a set of ten inert barcodes were spiked-in to each well of each plate after cell lysis to control for variation in PCR amplification as detailed below.
Luminex technology produced .Ixb files containing data for each Luminex bead observed during detection. These .Ixb files were processed to compute Median Fluorescence Intensity (MFI) values, calculated as the median of the values obtained for all beads corresponding to a single PRISM barcode. […]
For each cell line on each plate, the distribution of MFI values observed for the DMSO-treated negative controls was compared to that of the positive controls using a robust form of the Strictly Standardized Mean Difference (SSMD*)’. Specifically, SSMD* was calculated as: […]
Cell viability was calculated as the ratio of nMFI to the median of the nMFI from the DMSO-treated negative controls for each cell line on each plate. […]

[3] = system: multiple solid tumor and hematopoietic cancer types; conditions: monotherapy, phase 1 clinical trials; cited from earlier work
[4] = system: LU99 cells over-expressing SLC25A45; test: CellTiter-Glo cell viability, LU99 cells over-expressing SLC25A45; format: cell-based; conditions: Homo sapiens, Lu-99, SLC25A45 overexpression
Protocol: as §1

SMILES	effect of SLC7A11 knock-out and SLC25A45 over-expression on cell viability under treatment (NCI-H2122 cells)	rescue from inhibitor-induced cell killing by knock-out of SLC7A11 [1]	IC50 (LU99 cells) [nM]	change in effects on cell death by ectopic FAM3B expression ([2]; ectopic FAM3B vs wild type)	cell line killing in PRISM screen (500 cancer cell lines)	IC50 ([2]; Homo sapiens, Lu-99, ectopic expression of FAM3B) [nM]	clinical response [3]	IC50 [4] [nM]	sensitivity of cells with combined SLC7A11 knock-out and SLC25A45 over-expression (NCI-H2122 cells; combination of SLC7A11 knock-out and SLC25A45 over-expression)
O=C(Cc1ccccc1)Nc1nnc(CCSCCc2nnc(NC(=O)Cc3ccccc3)s2)s1 [BPTES, Bis-2-(5-phenylacetamido-1,3,4-thiadiazol-2-yl)ethyl sulfide]	increase cell viability	rescued sensitivity							
O=C(Cc1cccc(OC(F)(F)F)c1)Nc1ccc(CCCCc2nnc(NC(=O)Cc3ccccn3)[se]2)nn1 [Glutaminase IN 1]	increase cell viability	rescued sensitivity							
CC(=O)O[C@H]1C(=O)[C@@]2(C)[C@H]([C@H](OC(=O)c3ccccc3)[C@]3(O)C[C@H](OC(=O)[C@H](O)[C@@H](NC(=O)c4ccccc4)c4ccccc4)C(C)=C1C3(C)C)[C@]1(OC(C)=O)CO[C@@H]1C[C@@H]2O [Paclitaxel]	no significant rescue of sensitivity		2.2	no change					
O=C(Cc1cccc(OC(F)(F)F)c1)Nc1ccc(CCCCc2nnc(NC(=O)Cc3ccccn3)s2)nn1 [Telaglenastat]	increase cell viability	rescued	1.2		selectively kill cell lines across a broad range of lineages	> 10000	only occasional responses	22	almost completely resistant
CN(C)c1ccc(C2Nc3ccc4ccccc4c3C3=C2C(=O)CC(C)(C)C3)cc1Br (centres unmarked) [compound 968]	no significant rescue of sensitivity	not rescued							

— patent publication US20230151431A1, “METHODS AND COMPOSITIONS FOR IDENTIFYING AND TREATING GLUTAMINASE INHIBITOR-SENSITIVE CANCERS” (DANA-FARBER CANCER INSTITUTE, INC., priority 2020, published 2023)
